Experimental data as given in patent US9322066B2, “Predictors for cancer treatment” (priority 2011, dated 2016).

Test system: relapsed or refractory, rituximab-naive or -sensitive follicular B-cell NHL
Experiment: Time to next anti-lymphoma therapy, Vc-R vs rituximab study, by biomarker
Type: in vivo, human
Parameters: Median, Time to Next Anti-Lymphoma Therapy / Time to Next Anti-Lymphoma Therapy, Median: unit not given here
Text: Non-Hodgkin lymphoma (NHL) encompasses several unique malignant lymphoid disease entities that vary in clinical behavior, morphologic appearance, immunologic, and molecular phenotype. […] A randomized, open-label, active-controlled, multicenter, multinational, prospective study to compare the efficacy and safety of the combination of bortezomib and rituximab (Vc-R) to single-agent rituximab in subjects who have relapsed or refractory, rituximab-naive or -sensitive follicular B-cell NHL was performed.
Subjects were centrally randomized to Treatment Groups A (Vc-R) or B (rituximab) in a 1:1 ratio taking into account the following stratification factors: • Follicular Lymphoma International Prognostic Index (FLIPI) score (low [0 or 1 factor], intermediate [2 factors], high [≧3 factors]); • Prior rituximab therapy (yes, no); • Time since last dose of anti-lymphoma therapy (≦1 year, >1 year); • Region (United States/Canada, European Union, Rest of World).
The following clinical endpoints were included in the analysis within each treatment group and an overall comparison was made with the biomarker-related endpoints: Progression-free survival, defined as the interval between the date of randomization and the date of progressive disease (PD) or death, whichever is first reported in the ITT population; overall survival; overall response rate (complete response [CR]+CR unconfirmed [CRu]+partial response [PR]); overall CR rate (CR+CRu); duration of response; time to next anti-lymphoma therapy; and treatment free interval.

[1] = PSMB5/L206M: C/C, High Tumor Burden
[2] = PSMB5/L206M: C/C, ≦65 years old
[3] = PSMB5/R24C: C/C, >1 year since last anti-lymphoma treatment
[4] = PSMB5/R24C: C/T, Ann Arbor Stage IV
[5] = PSMB5/R24C: C/T, High Tumor Burden
[6] = PSMB6/A234D: C/C, >1 year since last anti-lymphoma treatment
[7] = PSMB6/A234D: C/C, Ann Arbor Stage IV
[8] = PSMB6/A234D: C/C, European Union
[9] = PSMB6/A234D: C/C, High Tumor Burden
[10] = PSMB6/A234D: C/C, ≦65 years old
[11] = PSMB6/P107A: C/C, >1 year since last anti-lymphoma treatment
[12] = PSMB6/P107A: C/C, Ann Arbor Stage IV
[13] = PSMB6/P107A: C/C, High Tumor Burden
[14] = PSMB6/P107A: C/C, ≦65 years old
[15] = PSMB8/G8R: G/G, >1 year since last anti-lymphoma treatment
[16] = PSMB8/G8R: G/G, Ann Arbor Stage IV
[17] = PSMB8/G8R: G/G, High Tumor Burden
[18] = PSMB8/R141C: C/C, >1 year since last anti-lymphoma treatment
[19] = PSMB8/R141C: C/C, Ann Arbor Stage IV
[20] = PSMB8/R141C: C/C, European Union
[21] = PSMB8/R141C: C/C, High Tumor Burden
[22] = PSMB8/R141C: C/C, ≦65 years old
[23] = PSMB8/V182M: G/G, >1 year since last anti-lymphoma treatment
[24] = PSMB8/V182M: G/G, Ann Arbor Stage IV
[25] = PSMB8/V182M: G/G, European Union
[26] = PSMB8/V182M: G/G, High Tumor Burden
[27] = PSMB8/V182M: G/G, ≦65 years old
[28] = PSMB9/G9E: G/G, >1 year since last anti-lymphoma treatment
[29] = PSMB9/G9E: G/G, Ann Arbor Stage IV
[30] = PSMB9/G9E: G/G, High Tumor Burden
[31] = PSMB9/V32I: C/C, 5 Prior Lines of Therapy
[32] = PSMB9/V32I: C/C, >1 year since last anti-lymphoma treatment
[33] = PSMB9/V32I: C/C, Ann Arbor Stage IV
[34] = PSMB9/V32I: C/C, High Tumor Burden

## rituximab
PSMB5/L206M: C/C, European Union
  Time to Next Anti-Lymphoma Therapy, Median: 675
[1]
  Time to Next Anti-Lymphoma Therapy, Evt/N: 108/147
  Time to Next Anti-Lymphoma Therapy, Median: 396
PSMB5/L206M: C/C, No Subgroup
  Time to Next Anti-Lymphoma Therapy, Evt/N: 173/276
  Time to Next Anti-Lymphoma Therapy, Median: 546
[2]
  Time to Next Anti-Lymphoma Therapy, Evt/N: 130/198
  Time to Next Anti-Lymphoma Therapy, Median: 489
[3]
  Time to Next Anti-Lymphoma Therapy, Evt/N: 81/137
  Time to Next Anti-Lymphoma Therapy, Median: 649
PSMB5/R24C: C/C, No Subgroup
  Time to Next Anti-Lymphoma Therapy, Evt/N: 147/235
  Time to Next Anti-Lymphoma Therapy, Median: 546
PSMB5/R24C: C/C, ≦65 years old
  Time to Next Anti-Lymphoma Therapy, Evt/N: 113/170
  Time to Next Anti-Lymphoma Therapy, Median: 489
[4]
  Time to Next Anti-Lymphoma Therapy, Evt/N: 11/15
  Time to Next Anti-Lymphoma Therapy, Median: 421
[5]
  Time to Next Anti-Lymphoma Therapy, Evt/N: 19/21
  Time to Next Anti-Lymphoma Therapy, Median: 317
[6]
  Time to Next Anti-Lymphoma Therapy, Evt/N: 98/165
  Time to Next Anti-Lymphoma Therapy, Median: 688
[7]
  Time to Next Anti-Lymphoma Therapy, Evt/N: 86/127
  Time to Next Anti-Lymphoma Therapy, Median: 457
[8]
  Time to Next Anti-Lymphoma Therapy, Evt/N: 75/119
  Time to Next Anti-Lymphoma Therapy, Median: 675
[9]
  Time to Next Anti-Lymphoma Therapy, Evt/N: 108/147
  Time to Next Anti-Lymphoma Therapy, Median: 396
PSMB6/A234D: C/C, No Subgroup
  Time to Next Anti-Lymphoma Therapy, Evt/N: 173/276
  Time to Next Anti-Lymphoma Therapy, Median: 546
[10]
  Time to Next Anti-Lymphoma Therapy, Evt/N: 130/198
  Time to Next Anti-Lymphoma Therapy, Median: 489
[11]
  Time to Next Anti-Lymphoma Therapy, Evt/N: 95/159
  Time to Next Anti-Lymphoma Therapy, Median: 702
[12]
  Time to Next Anti-Lymphoma Therapy, Evt/N: 84/124
  Time to Next Anti-Lymphoma Therapy, Median: 485
[13]
  Time to Next Anti-Lymphoma Therapy, Evt/N: 104/140
  Time to Next Anti-Lymphoma Therapy, Median: 380
PSMB6/P107A: C/C, No Subgroup
  Time to Next Anti-Lymphoma Therapy, Evt/N: 167/265
  Time to Next Anti-Lymphoma Therapy, Median: 550
[14]
  Time to Next Anti-Lymphoma Therapy, Evt/N: 125/189
  Time to Next Anti-Lymphoma Therapy, Median: 504
[15]
  Time to Next Anti-Lymphoma Therapy, Evt/N: 91/155
  Time to Next Anti-Lymphoma Therapy, Median: 702
[16]
  Time to Next Anti-Lymphoma Therapy, Evt/N: 80/120
  Time to Next Anti-Lymphoma Therapy, Median: 457
PSMB8/G8R: G/G, European Union
  Time to Next Anti-Lymphoma Therapy, Evt/N: 70/111
  Time to Next Anti-Lymphoma Therapy, Median: 649
PSMB8/G8R: G/G, Female
  Time to Next Anti-Lymphoma Therapy, Evt/N: 94/160
  Time to Next Anti-Lymphoma Therapy, Median: 649
[17]
  Time to Next Anti-Lymphoma Therapy, Evt/N: 104/140
  Time to Next Anti-Lymphoma Therapy, Median: 374
PSMB8/G8R: G/G, No Subgroup
  Time to Next Anti-Lymphoma Therapy, Evt/N: 165/264
  Time to Next Anti-Lymphoma Therapy, Median: 537
PSMB8/G8R: G/G, ≦65 years old
  Time to Next Anti-Lymphoma Therapy, Evt/N: 123/189
  Time to Next Anti-Lymphoma Therapy, Median: 504
[18]
  Time to Next Anti-Lymphoma Therapy, Evt/N: 98/165
  Time to Next Anti-Lymphoma Therapy, Median: 688
[19]
  Time to Next Anti-Lymphoma Therapy, Evt/N: 86/127
  Time to Next Anti-Lymphoma Therapy, Median: 457
[20]
  Time to Next Anti-Lymphoma Therapy, Evt/N: 75/119
  Time to Next Anti-Lymphoma Therapy, Median: 675
[21]
  Time to Next Anti-Lymphoma Therapy, Evt/N: 108/147
  Time to Next Anti-Lymphoma Therapy, Median: 396
PSMB8/R141C: C/C, No Subgroup
  Time to Next Anti-Lymphoma Therapy, Evt/N: 173/276
  Time to Next Anti-Lymphoma Therapy, Median: 546
[22]
  Time to Next Anti-Lymphoma Therapy, Evt/N: 130/198
  Time to Next Anti-Lymphoma Therapy, Median: 489
[23]
  Time to Next Anti-Lymphoma Therapy, Evt/N: 98/165
  Time to Next Anti-Lymphoma Therapy, Median: 688
[24]
  Time to Next Anti-Lymphoma Therapy, Evt/N: 86/127
  Time to Next Anti-Lymphoma Therapy, Median: 457
[25]
  Time to Next Anti-Lymphoma Therapy, Evt/N: 75/119
  Time to Next Anti-Lymphoma Therapy, Median: 675
[26]
  Time to Next Anti-Lymphoma Therapy, Evt/N: 108/147
  Time to Next Anti-Lymphoma Therapy, Median: 396
PSMB8/V182M: G/G, No Subgroup
  Time to Next Anti-Lymphoma Therapy, Evt/N: 173/276
  Time to Next Anti-Lymphoma Therapy, Median: 546
[27]
  Time to Next Anti-Lymphoma Therapy, Evt/N: 130/198
  Time to Next Anti-Lymphoma Therapy, Median: 489
[28]
  Time to Next Anti-Lymphoma Therapy, Evt/N: 97/163
  Time to Next Anti-Lymphoma Therapy, Median: 688
[29]
  Time to Next Anti-Lymphoma Therapy, Evt/N: 86/126
  Time to Next Anti-Lymphoma Therapy, Median: 457
PSMB9/G9E: G/G, European Union
  Time to Next Anti-Lymphoma Therapy, Evt/N: 75/119
  Time to Next Anti-Lymphoma Therapy, Median: 675
[30]
  Time to Next Anti-Lymphoma Therapy, Evt/N: 107/145
  Time to Next Anti-Lymphoma Therapy, Median: 396
PSMB9/G9E: G/G, No Subgroup
  Time to Next Anti-Lymphoma Therapy, Evt/N: 172/274
  Time to Next Anti-Lymphoma Therapy, Median: 546
PSMB9/G9E: G/G, ≦65 years old
  Time to Next Anti-Lymphoma Therapy, Evt/N: 129/196
  Time to Next Anti-Lymphoma Therapy, Median: 489
PSMB9/R60H: A/G, Male
  Time to Next Anti-Lymphoma Therapy, Evt/N: 22/28
  Time to Next Anti-Lymphoma Therapy, Median: 380
[31]
  Time to Next Anti-Lymphoma Therapy, Evt/N: 7/8
  Time to Next Anti-Lymphoma Therapy, Median: 228
[32]
  Time to Next Anti-Lymphoma Therapy, Evt/N: 96/160
  Time to Next Anti-Lymphoma Therapy, Median: 649
[33]
  Time to Next Anti-Lymphoma Therapy, Evt/N: 84/123
  Time to Next Anti-Lymphoma Therapy, Median: 457
[34]
  Time to Next Anti-Lymphoma Therapy, Evt/N: 106/142
  Time to Next Anti-Lymphoma Therapy, Median: 396
PSMB9/V32I: C/C, ≦65 years old
  Time to Next Anti-Lymphoma Therapy, Evt/N: 127/192
  Time to Next Anti-Lymphoma Therapy, Median: 489
